Reference: patent publication US6713449B1, “E2F activity inhibitory compounds” (Kyowa Hakko Kogyo Co., Ltd., priority 1996, dated 2004)
Where a SMILES comes first, the peptide text is derived from it. The star is where a group is joined. Lauroyl = CCCCCCCCCCCC(=O)*

Experiments:
[1] = target: T1, GST-E2F-1 and GST-DP-1 binding to 32P-labeled E2F probe (Homo sapiens, UniProt Q01094+Q14186); experiment: Assay of E2F-DNA binding-inhibiting activity by gel shift assay; details: 30° C. 30 minutes
T1 construct: a part of human E2F-1 (101-st to 227-th amino acid residues from the N terminus) and GST; a part of the human DP-1 (84-th to 241-th amino acid residues from the N terminus) with GST; made in house; host or cells: Escherichia coli XL1-blue
T1 sequence (Q01094 101-227): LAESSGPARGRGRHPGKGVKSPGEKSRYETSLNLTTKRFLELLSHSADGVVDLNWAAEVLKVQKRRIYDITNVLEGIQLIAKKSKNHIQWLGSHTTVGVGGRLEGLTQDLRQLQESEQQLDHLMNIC
T1 sequence (Q14186 84-241): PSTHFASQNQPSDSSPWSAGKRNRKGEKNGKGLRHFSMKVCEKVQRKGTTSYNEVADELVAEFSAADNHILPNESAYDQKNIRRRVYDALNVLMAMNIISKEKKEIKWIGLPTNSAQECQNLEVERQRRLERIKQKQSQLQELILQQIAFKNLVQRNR
Description: Assay of E2F-DNA Binding-inhibiting Activity by Gel Shift Assay (1-1) Expression of a Fusion Protein of E2F-1 and DP-1 in Escherichia Coli
So as to assay the activity to inhibit E2F-DNA binding, a fusion protein of glutathione-S-transferase (abbreviated as GST hereinbelow) with the genes of human E2F-1 [Cell, 70, 337 (1992); Cell, 70, 351 (1992)] and human DP-1 [Genes Dev., 7, 1850 (1993)] was prepared.
(1-2) Gel Shift Experiments by Using GST-E2F-1 and GST-DP-1
The following two oligonucleotides including the E2F binding sequence, which are complementary sequences to each other;
were added individually at a concentration of 10 μM into a solution comprising 10 mM MgCl2, 5 mM DTT and 50 mM Tris-HCl(pH 7.5), for treatment at 75° C. for 10 minutes, and the resulting solutions were left to stand at ambient temperature while gradually lowering the temperature for annealing. The resulting double-stranded DNA solution (10 μl) was kept in a reaction solution (30 μL) [50 mM Tris-HCl buffer(pH 7.5) containing 10 mM MgCl2, 5 mM dithiothreitol (DTT) 10 units of T4 polynucleotide kinase (manufactured by TaKaRa), 0.2 mCi [γ-^32P]ATP (7,000 Ci/mmol ATP, manufactured by Amersham Co.)] at 37° C. for 60 minutes, to label the 5′ terminus. By adding 0.5 M EDTA (2 μl) to the reaction solution, the reaction was terminated, and thereafter, unreactive [γ-^32P]ATP was removed by using a NickColumn G-50 (manufactured by Pharmacia Co.), to recover E2F probe. Into 20 mM HEPES buffer(pH 7.4)(20 μl) containing 40 mM KCl, 1 mM MgCl2, 0.1 mM EDTA, 0.1% Nonidet P-40, and 1 mM DTT were added 0.1 pmol of ^32P-labeled E2F probe, 100 ng of GST-E2F-1, 100 ng of GST-DP-1, 2 μg of calf thymus DNA and 0 to a 100 μM test compound, for reaction at 30° C. for 30 minutes. After the reaction, the reaction solution was electrophoresed by using 0.5×TBE [2.5 mM Tris-borate buffer, pH 8.3, 0.1 mM EDTA] as an electrophoresis buffer in 4% polyacrylamide gel. GST-E2F-1 and GST-DP-1 proteins were bound to the labeled E2F probe, so that the mobility thereof was reduced. Accordingly, the proteins were detected as upper bands. After electrophoresis, the gel was dried to assay the radioactivity in bands shifting upward, by using an image analyzer Type BAS2000 (manufactured by Fuji Film Co.). The radioactivity in each lane was assayed, to calculate the inhibition ratio, on the basis of the radioactivity of a sample with no test compound contained in the reaction system, according to the following equation.
A: radioactivity in a band shifted in the absence of any test compound
B: radioactivity in a band shifted in the presence of a test compound.

[2] = system: E2F dependent transcription (luciferase reporter cell strain E2F-1/Saos-2-1); experiment: Assay of activity suppressing E2F responsive transcription (2): reporter cell strain E2F-1/Saos-2-1, Lipofect AMINE; format: cell-based, human; details: luciferase activity corrected with protein concentration
Source text: Assay of Activity Suppressing E2F Responsive Transcription (2)
Into the XhoI- and HindIII sites of luciferase reporter vector pluc2 with neomycin (G418) resistant gene [Eur. J. Haematol., 52, 73 (1994)] were inserted an SphI-HindIII fragment composed of the 200 base pairs in the core promoter region of the SV40 initial gene 128-0/5243-5171, base number according to “DNA Tumor Viruses, Molecular Biology of Tumor Viruses, 2nd Ed., Part 2 Revised, Edited by J. Tooze, Cold Spring Harbor Laboratory Press, 1982” and a fragment produced by annealing the following two synthetic oligonucleotides;
and then inserting the annealed product into the XhoI and Asp718 sites of the constructed luciferase vector pSE01uc2, reporter plasmid pE2FII-1luc2 was constructed.
By the following method, the plasmid was introduced into a human osteosarcoma-derived cell strain Saos-2 (ATCC HTB85), and the resulting cell was defined as E2F responsive reporter cell. 2×10^6 cells of the Saos-2 cultured in the presence of 5% CO2 in the medium A at 37° C. were suspended in K-PBS buffer (50 μl) [137 mM KCl, 2.7 mM NaCl, 8.1 mM Na2HPO4, 1.5 mM KH2PO4, 4 mM MgCl2], followed by addition of 1 μg/μl plasmid pE2FII-1 luc2 (4 μg) prepared above. […]

[3] = system: E2F responsive transcription (human cdc2 promoter-luciferase reporter pcdc21uc2); experiment: Assay of activity suppressing E2F responsive transcription (1): human cdc2 promoter luciferase reporter in Saos-2; format: cell-based; details: 100 μM, electroporation, 40 hours, luciferase activity corrected with protein concentration
Description: Assay of Activity Suppressing E2F Responsive Transcription (1)
The promoter sequence of human cdc2 gene [EMBO J., 11, 1797 (1992)], which has been reported to have an endogenous E2F responsive sequence and to effect an E2F dependent transcription, was bound to the upstream of the firefly luciferase gene, which was designated as reporter gene.
Two micrograms (2 μg) of the plasmid pcdc21uc2 thus prepared were introduced, together with a test compound (100 μM), into 1×10^6 cells of Saos-2 by electroporation, in the same manner as in the Test Example 2. As in the Test Example 2, the resulting cells were inoculated into a cell culture dish of a 60-mm diameter for culturing in the presence of 5% CO2 at 37° C. for 40 hours, and thereafter, the cells were peeled off and recovered by centrifugation. […] The luciferase activity was assayed as follows; 300 μl of a substrate solution [25 mM glycylglycine buffer(pH 7.8), 15 mM MgSO4, 5 mM ATP, and 0.33 mM luciferin] was automatically injected into a luminometer LB953 (manufactured by Beltold Co.), to assay the luminescence for 10 seconds, which was defined as luciferase activity. […] Based on the luciferase activity (after correction with protein concentration) of a sample with no test compound contained in the reaction system, the inhibition ratio was calculated by the following equation. […]

[4] = system: human osteosarcoma-derived cell line Saos-2; experiment: Assay of growth inhibiting activity on Saos-2 cell (test compound introduced by electric pulse); format: cell-based; details: 100 μM, 40 hours culture, viable cell number
Description: Assay of Growth Inhibiting Activity on Saos-2 cell
1×10^6 cells of a human osteosarcoma-derived cell line Saos-2 (ATCC HTB85) cultured in an RPMI 1640 culture medium containing 10% fetal calf serum (manufactured by Nissui Co.; referred to as medium A hereinbelow) in the presence of 5% CO2 at 37° C. were suspended in 50 μl of K-PBS buffer [137 mM KCl, 2.7 mM NaCl, 8.1 mM Na2HPO4, 1.5 mM KH2PO4, and 4 mM MgCl2], followed by addition of a test compound appropriately diluted with K-PBS to a final concentration of 100 μM. The suspension was transferred on a 0.2-cm width cuvette (manufactured by BIO-RAD Laboratories) for loading an electric pulse (conditions: an electric voltage=3 kV/cm, a pulse width=100 μ seconds, a pulse interval=one second, a pulse number=two) by using a Shimadzu cell fusion system SSH-1 [manufactured by Shimadzu Corporation]. After leaving the cuvette to stand for 10 minutes, the cells were recovered and suspended in 3 ml of the medium A, for inoculation on a cell culture dish of a 60-mm diameter(manufactured by Iwaki Glass Co.). […] Based on the cell number with no test compound under load of an electric pulse, the inhibition ratio was calculated by the following equation. […]

CCCCCCCCCCCC(=O)N[C@@H](CC(N)=O)C(=O)N[C@@H](CCC(=O)O)C(=O)N[C@@H](CO)C(=O)N[C@@H](C)C(=O)N[C@@H](Cc1ccc(O)cc1)C(=O)N[C@@H](CC(=O)O)C(=O)N[C@@H](CCC(N)=O)C(=O)N[C@@H](CCCCN)C(=O)N[C@@H](CC(N)=O)C(=O)N[C@H](C(=O)N[C@@H](CCCNC(=N)N)C(=O)N[C@@H](CCCNC(=N)N)C(=O)N[C@@H](CCCNC(=N)N)C(=O)N[C@H](C(=O)N[C@@H](Cc1ccc(O)cc1)C(=O)N[C@@H](CC(=O)O)C(=O)N[C@@H](C)C(=O)N[C@@H](CC(C)C)C(=O)N[C@@H](CC(N)=O)C(=O)N[C@H](C(=O)N[C@@H](CC(C)C)C(=O)N[C@@H](CCSC)C(=O)N[C@@H](C)C(=O)N[C@@H](CCSC)C(=O)N[C@@H](CC(N)=O)C(=O)N[C@H](C(=O)N[C@H](C(=O)N[C@@H](CO)C(N)=O)[C@@H](C)CC)[C@@H](C)CC)C(C)C)C(C)C)[C@@H](C)CC [Compound Ib-3] (Lauroyl-NESAYDQKNIRRRVYDALNVLMAMNIIS-NH2)
Inhibition ratio (%) ([1]; 25 μM test compound): 17.9%
Inhibition ratio (%) ([1]; 100 μM test compound): 49.5%

Ac-Ala-Arg-Gly-Arg-Gly-Arg-His-Pro-Gly-Lys-Gly-Val-Lys-Ser-Pro-Gly-Glu-Arg-Ser-Arg-Tyr-Glu-Thr-Ser-Leu-Asn-Leu-Thr-Thr-Lys-Arg-Phe-Leu-Glu-Leu-NH2 (Ac-ARGRGRHPGKGVKSPGERSRYETSLNLTTKRFLEL-NH2) [Compound Ic-1]
Inhibition ratio (%) ([2]; 1 μM): 17%
Inhibition ratio (%) ([2]; 10 μM): 28%

Ac-NESAYDQKNIRRRVYDALNVLMAMNIIS-NH2 [Compound Ib-1]
Inhibition ratio (%) ([1]; 1 μM test compound): 13.7%
Inhibition ratio (%) ([1]; 10 μM test compound): 52.9%
Inhibition ratio (%) ([1]; 100 μM test compound): 87.6%
Inhibition ratio (%) [3]: 83%
Inhibition ratio (%) [4]: 73%
